# What was measured:
# [1] = test system: highly resistant strains of Pseudomonas aeruginosa; experiment: MIC determination, all strains; format: cell-based; details: when used alone; highly resistant strains of P. aeruginosa
# Experimental: (§1) The antibacterial activity of combinations according to the invention against resistant bacterial strains was investigated. Minimum Inhibitory Concentration (MIC) determination for the combinations according to invention was carried out in Muller Hinton Agar (MHA) (BD, USA) according to Clinical and Laboratory Standards Institute (CLSI) recommendations, (Clinical and Laboratory Standards Institute (CLSI), Performance Standards for Antimicrobial Susceptibility Testing, 20th Informational Supplement, M 100-S20, Volume 30, No. 1, 2010). In short, the test strains were adjusted to deliver about 10^4 CFU per spot with a multipoint inoculator (Applied Quality Services, UK). The plates were pored with MHA containing doubling concentration range of the test combinations according to invention. The plates were inoculated and were incubated at 35° C. for 18 hours.
# The results on antibacterial activity of a carbapenem antibacterial agent selected from imipenem, meropenem, ertapenem and doripenem alone and in combination with Compound A or Compound B, against highly resistant strains of Pseudomonas aeruginosa are given in Table 1. […] For example, P. aeruginosa 2779 harbors resistance due to increased AmpC expression (300 times) and increased efflux; P. aeruginosa 1405 harbors resistance due to increased AmpC expression (600 times), reduced OprD expression and increased efflux; P. aeruginosa R 70 harbors resistance due to reduced OprD expression and increased efflux; and P. aeruginosa J 154 harbors resistance due to reduced OprD.
# [2] = test system: P. aeruginosa J 154; experiment: MIC determination in Muller Hinton Agar (CLSI); format: cell-based, Pseudomonas aeruginosa; details: Pseudomonas aeruginosa, J154; agent alone; P. aeruginosa J 154 [Reduced OprD]
# Experimental: as §1
# [3] = test system: P. aeruginosa R 70; experiment: MIC determination in Muller Hinton Agar (CLSI); format: cell-based, Pseudomonas aeruginosa; details: Pseudomonas aeruginosa, R70, 18 h; agent alone; P. aeruginosa R 70 [Reduced OprD + increased efflux]
# Experimental: as §1
# [4] = test system: Pseudomonas aeruginosa R70; experiment: Time kill study; format: cell-based; details: P. aeruginosa R70; for effect on bacterial counts through out the duration of the study (in words): when used alone
# Experimental: (§2) The synergistic killing effect of the combinations according to invention was studied by performing time kill studies. In a typical time kill study, the freshly grown cultures were diluted to the required cell density (initial starting inoculum) in Cation adjusted Muller Hinton broth medium (BD, USA). The antibacterial agents (either alone or in combination) at the required concentrations were added into the culture-containing medium. The samples were incubated under shaking condition (120 rpm) at 37° C. Enumeration of viable bacterial count was done every 2 hour by diluting in normal saline and plating on to the Tryptic Soya Agar plates (BD, USA). The plates were incubated for 24 hours to arrive at the viable bacterial count. The results are expressed in terms of Log10 CFU per ml. In general, the decrease of 1 Log10 CFU/ml, corresponds to 90% killing of bacteria.
# [5] = test system: Pseudomonas aeruginosa 1405; experiment: Time kill study; format: cell-based; details: P. aeruginosa 1405; for effect on bacterial counts through out the duration of the study (in words): when used alone
# Experimental: as §2
smiles,measurement,setting,value
"O=C(NNC(=O)[C@@H]1CC[C@@H]2CN1C(=O)N2OS(=O)(=O)O)[C@@H]1CCCNC1 [Compound A, trans-sulfuric acid mono-[2-(N′-[(R)-piperidin-3-carbonyl]-hydrazinocarbonyl)-7-oxo-1,6-diaza-bicyclo[3.2.1]oct-6-yl]ester]",MIC values (in words),[1],higher MIC values
same,MIC,[2],16 µg/mL
same,MIC,[3],8 µg/mL
same,effect on bacterial counts through out the duration of the study (in words),[4],failed to reduce the bacterial counts
same,Bacterial count (Log10 CFU/ml) 0 hour,"[4]; Table 4, single agent 4 mcg/ml",6.62 Log10 CFU/ml
same,Bacterial count (Log10 CFU/ml) 2 hour,"[4]; Table 4, single agent 4 mcg/ml",7.07 Log10 CFU/ml
same,Bacterial count (Log10 CFU/ml) 4 hour,"[4]; Table 4, single agent 4 mcg/ml",8.35 Log10 CFU/ml
same,Bacterial count (Log10 CFU/ml) 6 hour,"[4]; Table 4, single agent 4 mcg/ml",8.48 Log10 CFU/ml
same,Bacterial count (Log10 CFU/ml) 0 hour,"[4]; Table 4, single agent 8 mcg/ml",6.62 Log10 CFU/ml
same,Bacterial count (Log10 CFU/ml) 2 hour,"[4]; Table 4, single agent 8 mcg/ml",6.9 Log10 CFU/ml
same,Bacterial count (Log10 CFU/ml) 4 hour,"[4]; Table 4, single agent 8 mcg/ml",7.11 Log10 CFU/ml
same,Bacterial count (Log10 CFU/ml) 6 hour,"[4]; Table 4, single agent 8 mcg/ml",7.16 Log10 CFU/ml
same,effect on bacterial counts through out the duration of the study (in words),[5],failed to reduce the bacterial counts
same,Bacterial count (Log10 CFU/ml) 0 hour,"[5]; Table 2, single agent 4 mcg/ml",6.84 Log10 CFU/ml
same,Bacterial count (Log10 CFU/ml) 2 hour,"[5]; Table 2, single agent 4 mcg/ml",6.81 Log10 CFU/ml
same,Bacterial count (Log10 CFU/ml) 4 hour,"[5]; Table 2, single agent 4 mcg/ml",7.84 Log10 CFU/ml
same,Bacterial count (Log10 CFU/ml) 6 hour,"[5]; Table 2, single agent 4 mcg/ml",8.06 Log10 CFU/ml
same,Bacterial count (Log10 CFU/ml) 0 hour,"[5]; Table 2, single agent 8 mcg/ml",6.84 Log10 CFU/ml
same,Bacterial count (Log10 CFU/ml) 2 hour,"[5]; Table 2, single agent 8 mcg/ml",6.48 Log10 CFU/ml
same,Bacterial count (Log10 CFU/ml) 4 hour,"[5]; Table 2, single agent 8 mcg/ml",7.4 Log10 CFU/ml
same,Bacterial count (Log10 CFU/ml) 6 hour,"[5]; Table 2, single agent 8 mcg/ml",7.54 Log10 CFU/ml
"O=C(NNC(=O)[C@@H]1CC[C@@H]2CN1C(=O)N2OS(=O)(=O)O)[C@@H]1CCNC1 [Compound B, trans-sulfuric acid mono-[2-(N′-[(R)-pyrrolidin-3-carbonyl]-hydrazinocarbonyl)-7-oxo-1,6-diaza-bicyclo[3.2.1]oct-6-yl]ester]",MIC values (in words),[1],higher MIC values
same,MIC,[2],8 µg/mL
same,MIC,[3],2 µg/mL
same,effect on bacterial counts through out the duration of the study (in words),[4],failed to reduce the bacterial counts
same,Bacterial count (Log10 CFU/ml) 0 hour,"[4]; Table 5, single agent 2 mcg/ml",6.44 Log10 CFU/ml
same,Bacterial count (Log10 CFU/ml) 2 hour,"[4]; Table 5, single agent 2 mcg/ml",7.11 Log10 CFU/ml
same,Bacterial count (Log10 CFU/ml) 4 hours,"[4]; Table 5, single agent 2 mcg/ml",7.3 Log10 CFU/ml
same,Bacterial count (Log10 CFU/ml) 6 hour,"[4]; Table 5, single agent 2 mcg/ml",7.6 Log10 CFU/ml
same,Bacterial count (Log10 CFU/ml) 0 hour,"[4]; Table 5, single agent 4 mcg/ml",6.44 Log10 CFU/ml
same,Bacterial count (Log10 CFU/ml) 2 hour,"[4]; Table 5, single agent 4 mcg/ml",6.2 Log10 CFU/ml
same,Bacterial count (Log10 CFU/ml) 4 hours,"[4]; Table 5, single agent 4 mcg/ml",6.4 Log10 CFU/ml
same,Bacterial count (Log10 CFU/ml) 6 hour,"[4]; Table 5, single agent 4 mcg/ml",6.0 Log10 CFU/ml
same,effect on bacterial counts through out the duration of the study (in words),[5],failed to reduce the bacterial counts
same,Bacterial count (Log10 CFU/ml) 0 hour,"[5]; Table 3, single agent 2 mcg/ml",6.81 Log10 CFU/ml
same,Bacterial count (Log10 CFU/ml) 2 hour,"[5]; Table 3, single agent 2 mcg/ml",6.48 Log10 CFU/ml
same,Bacterial count (Log10 CFU/ml) 4 hour,"[5]; Table 3, single agent 2 mcg/ml",7.6 Log10 CFU/ml
same,Bacterial count (Log10 CFU/ml) 6 hour,"[5]; Table 3, single agent 2 mcg/ml",7.5 Log10 CFU/ml
same,Bacterial count (Log10 CFU/ml) 0 hour,"[5]; Table 3, single agent 4 mcg/ml",6.81 Log10 CFU/ml
same,Bacterial count (Log10 CFU/ml) 2 hour,"[5]; Table 3, single agent 4 mcg/ml",6.54 Log10 CFU/ml
same,Bacterial count (Log10 CFU/ml) 4 hour,"[5]; Table 3, single agent 4 mcg/ml",6.65 Log10 CFU/ml
same,Bacterial count (Log10 CFU/ml) 6 hour,"[5]; Table 3, single agent 4 mcg/ml",6.7 Log10 CFU/ml
